The nature of this data set: Related Substance data of Brinzolamide after sterilization (Gamma irradiation vs Dry heat sterilization). The format is physicochemical. To be noted: for Impurities: Any individual impurity / Impurities: Related Compound B / Impurities: Related Compound C / Impurities: Related Compound D: Limit NMT 0.3%; for Impurities: Total: Limit NMT 1.0%. The protocol:
The active pharmaceutical ingredient according to the present invention after Dry Heat Sterilization will essentially contain the same physico-chemical properties, its chemical purity and physical form as the starting material from which it is prepared. The degradation, especially chemical degradation caused by the present sterilization process is negligible. A table of comparison for Related Substance data of Brinzolamide after sterilization by Gamma irradiation and Dry heat sterilization is presented below.

Where [1] appears, read: after Gamma irradiation sterilization.

Turning to `CCN[C@H]1CN(CCCOC)S(=O)(=O)c2sc(S(N)(=O)=O)cc21` [Brinzolamide, R 4-ethylamino-3,4-dihydro-2-(3-methoxy)propyl-2H-thieno[3,2-e]-1,2-thiazin-6-sulfonamide 1,1 dioxide], under “after Dry Heat Sterilization”, the “Impurities: Any individual impurity” value was 0.09%, the “Impurities: Related Compound B” value amounted to 0.01%, the “Impurities: Related Compound C” value was 0.06% and the “Impurities: Related Compound D” value is reported as 0.01%. In addition, the “Impurities: Total” value (after Dry Heat Sterilization) is 0.43%. Under setting [1], the “Impurities: Any individual impurity” value was found to be 0.73%, the “Impurities: Related Compound B” value was found to be 0.4%, the “Impurities: Related Compound C” value stood at 0.06% and the “Impurities: Related Compound D” value was determined as 0.01%. Also, the “Impurities: Total” value under setting [1] is 1.98%.

Source of the values: patent US9649319B2, “Process for manufacturing sterile brinzolamide ophthalmic suspension” (INDOCO REMEDIES LIMITED, priority 2012, dated 2017).
